Experimental data: US20170360795A1, “TREATMENT OF CANCERS USING PI3 KINASE ISOFORM MODULATORS” (INFINITY PHARMACEUTICALS, INC., priority 2013, published 2017)

Legend:
PI3K δ = PI3K δ (Homo sapiens, UniProt O00329); assay: In vitro IC50, PI3K δ (Table 3); format: biochemical; parameters: purchased Upstate
Source text: (§1) Other commercial kits or systems for assaying PI3K activities are available. […] An exemplary system is PI 3-Kinase (human) HTRF™ Assay from Upstate.

PI3K β = molecular target: T1, PI3K β (Homo sapiens, UniProt P42338); assay: In vitro IC50, PI3K β (Table 3); format: biochemical
T1 construct: purchased Upstate
T1 sequence (P42338 whole entry): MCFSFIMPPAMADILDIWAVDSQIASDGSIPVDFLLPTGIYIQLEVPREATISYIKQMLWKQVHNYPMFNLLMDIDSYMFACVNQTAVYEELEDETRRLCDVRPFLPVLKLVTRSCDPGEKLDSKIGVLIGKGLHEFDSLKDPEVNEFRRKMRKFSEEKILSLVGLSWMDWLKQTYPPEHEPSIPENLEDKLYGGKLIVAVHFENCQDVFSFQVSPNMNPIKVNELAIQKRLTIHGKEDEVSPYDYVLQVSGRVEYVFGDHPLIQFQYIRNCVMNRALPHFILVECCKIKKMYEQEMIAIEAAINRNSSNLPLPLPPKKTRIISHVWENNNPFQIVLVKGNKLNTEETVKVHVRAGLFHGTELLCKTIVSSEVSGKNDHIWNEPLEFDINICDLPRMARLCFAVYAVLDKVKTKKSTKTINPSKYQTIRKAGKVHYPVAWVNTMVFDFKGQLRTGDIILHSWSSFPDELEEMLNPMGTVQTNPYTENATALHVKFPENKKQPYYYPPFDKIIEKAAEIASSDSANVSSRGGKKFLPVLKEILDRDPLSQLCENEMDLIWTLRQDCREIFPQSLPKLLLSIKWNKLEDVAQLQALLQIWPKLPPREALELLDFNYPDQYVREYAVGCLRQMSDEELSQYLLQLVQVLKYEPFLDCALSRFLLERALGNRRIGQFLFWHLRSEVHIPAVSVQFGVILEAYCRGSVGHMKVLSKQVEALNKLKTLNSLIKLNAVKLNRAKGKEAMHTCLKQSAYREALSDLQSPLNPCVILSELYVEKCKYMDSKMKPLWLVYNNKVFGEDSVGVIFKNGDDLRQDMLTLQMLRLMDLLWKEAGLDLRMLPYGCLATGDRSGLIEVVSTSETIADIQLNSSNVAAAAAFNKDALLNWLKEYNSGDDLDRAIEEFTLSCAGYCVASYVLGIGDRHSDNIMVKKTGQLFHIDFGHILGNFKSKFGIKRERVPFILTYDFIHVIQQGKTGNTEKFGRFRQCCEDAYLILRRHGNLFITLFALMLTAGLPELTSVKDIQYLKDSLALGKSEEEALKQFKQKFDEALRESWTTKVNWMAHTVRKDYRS
T1 sequence (P27986 whole entry partner): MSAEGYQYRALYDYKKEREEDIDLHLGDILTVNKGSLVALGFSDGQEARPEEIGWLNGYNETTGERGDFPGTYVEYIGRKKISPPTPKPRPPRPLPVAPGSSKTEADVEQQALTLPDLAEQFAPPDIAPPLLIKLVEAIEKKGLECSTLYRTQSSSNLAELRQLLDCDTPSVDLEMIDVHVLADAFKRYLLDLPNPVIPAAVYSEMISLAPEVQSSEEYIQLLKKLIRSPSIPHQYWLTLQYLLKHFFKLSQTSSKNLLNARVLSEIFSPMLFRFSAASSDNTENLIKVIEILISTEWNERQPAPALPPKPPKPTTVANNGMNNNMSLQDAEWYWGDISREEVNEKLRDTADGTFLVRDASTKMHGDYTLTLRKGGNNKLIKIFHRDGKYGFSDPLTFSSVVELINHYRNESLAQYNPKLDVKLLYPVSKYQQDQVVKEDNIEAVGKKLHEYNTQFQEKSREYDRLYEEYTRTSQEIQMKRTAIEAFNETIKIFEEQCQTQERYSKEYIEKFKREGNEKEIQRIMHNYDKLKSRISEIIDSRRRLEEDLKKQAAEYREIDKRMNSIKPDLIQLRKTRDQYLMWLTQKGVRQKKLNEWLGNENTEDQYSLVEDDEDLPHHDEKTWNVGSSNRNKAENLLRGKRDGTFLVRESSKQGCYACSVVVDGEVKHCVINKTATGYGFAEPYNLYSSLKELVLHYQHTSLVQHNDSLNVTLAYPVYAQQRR
Source text: as §1

PI3K α = molecular target: T2, PI3K α (Homo sapiens, UniProt P42336); assay: In vitro IC50, PI3K α (Table 3); format: biochemical
T2 construct: purchased Upstate
T2 sequence (P42336 whole entry): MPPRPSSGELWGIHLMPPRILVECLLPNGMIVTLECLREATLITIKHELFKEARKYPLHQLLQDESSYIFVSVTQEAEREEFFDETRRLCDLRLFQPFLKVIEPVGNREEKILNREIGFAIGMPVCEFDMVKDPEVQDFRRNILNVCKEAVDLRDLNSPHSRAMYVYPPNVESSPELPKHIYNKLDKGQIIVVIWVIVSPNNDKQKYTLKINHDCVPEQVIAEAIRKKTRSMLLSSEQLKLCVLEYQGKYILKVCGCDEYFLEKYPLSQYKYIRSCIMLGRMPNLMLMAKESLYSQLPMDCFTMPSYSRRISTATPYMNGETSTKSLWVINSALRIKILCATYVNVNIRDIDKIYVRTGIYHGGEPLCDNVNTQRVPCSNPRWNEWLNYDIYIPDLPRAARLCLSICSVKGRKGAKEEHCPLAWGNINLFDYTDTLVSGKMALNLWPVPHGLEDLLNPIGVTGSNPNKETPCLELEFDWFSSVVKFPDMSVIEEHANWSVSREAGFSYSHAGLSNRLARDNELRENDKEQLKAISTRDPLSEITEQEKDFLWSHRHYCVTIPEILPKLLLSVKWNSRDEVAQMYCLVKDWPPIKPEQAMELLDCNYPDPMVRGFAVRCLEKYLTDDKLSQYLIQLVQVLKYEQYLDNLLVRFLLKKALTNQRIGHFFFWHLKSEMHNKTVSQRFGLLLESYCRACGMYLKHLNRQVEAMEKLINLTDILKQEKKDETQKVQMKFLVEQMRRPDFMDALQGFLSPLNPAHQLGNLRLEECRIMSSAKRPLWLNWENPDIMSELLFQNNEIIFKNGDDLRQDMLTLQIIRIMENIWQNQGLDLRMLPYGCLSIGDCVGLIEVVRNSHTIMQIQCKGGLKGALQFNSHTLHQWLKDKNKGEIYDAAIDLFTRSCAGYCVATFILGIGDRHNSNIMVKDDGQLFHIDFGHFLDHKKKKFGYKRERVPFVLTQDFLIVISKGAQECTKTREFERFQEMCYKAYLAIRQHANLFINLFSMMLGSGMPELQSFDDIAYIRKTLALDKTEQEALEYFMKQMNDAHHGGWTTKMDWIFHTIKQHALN
T2 sequence (P27986 whole entry partner): as the sequence (P27986 whole entry partner) above
Source text: as §1

PI3K γ = PI3K γ (Homo sapiens, UniProt P48736); assay: In vitro IC50, PI3K γ (Table 3); format: biochemical; parameters: purchased Sigma
Chain of PI3K γ (P48736 whole entry): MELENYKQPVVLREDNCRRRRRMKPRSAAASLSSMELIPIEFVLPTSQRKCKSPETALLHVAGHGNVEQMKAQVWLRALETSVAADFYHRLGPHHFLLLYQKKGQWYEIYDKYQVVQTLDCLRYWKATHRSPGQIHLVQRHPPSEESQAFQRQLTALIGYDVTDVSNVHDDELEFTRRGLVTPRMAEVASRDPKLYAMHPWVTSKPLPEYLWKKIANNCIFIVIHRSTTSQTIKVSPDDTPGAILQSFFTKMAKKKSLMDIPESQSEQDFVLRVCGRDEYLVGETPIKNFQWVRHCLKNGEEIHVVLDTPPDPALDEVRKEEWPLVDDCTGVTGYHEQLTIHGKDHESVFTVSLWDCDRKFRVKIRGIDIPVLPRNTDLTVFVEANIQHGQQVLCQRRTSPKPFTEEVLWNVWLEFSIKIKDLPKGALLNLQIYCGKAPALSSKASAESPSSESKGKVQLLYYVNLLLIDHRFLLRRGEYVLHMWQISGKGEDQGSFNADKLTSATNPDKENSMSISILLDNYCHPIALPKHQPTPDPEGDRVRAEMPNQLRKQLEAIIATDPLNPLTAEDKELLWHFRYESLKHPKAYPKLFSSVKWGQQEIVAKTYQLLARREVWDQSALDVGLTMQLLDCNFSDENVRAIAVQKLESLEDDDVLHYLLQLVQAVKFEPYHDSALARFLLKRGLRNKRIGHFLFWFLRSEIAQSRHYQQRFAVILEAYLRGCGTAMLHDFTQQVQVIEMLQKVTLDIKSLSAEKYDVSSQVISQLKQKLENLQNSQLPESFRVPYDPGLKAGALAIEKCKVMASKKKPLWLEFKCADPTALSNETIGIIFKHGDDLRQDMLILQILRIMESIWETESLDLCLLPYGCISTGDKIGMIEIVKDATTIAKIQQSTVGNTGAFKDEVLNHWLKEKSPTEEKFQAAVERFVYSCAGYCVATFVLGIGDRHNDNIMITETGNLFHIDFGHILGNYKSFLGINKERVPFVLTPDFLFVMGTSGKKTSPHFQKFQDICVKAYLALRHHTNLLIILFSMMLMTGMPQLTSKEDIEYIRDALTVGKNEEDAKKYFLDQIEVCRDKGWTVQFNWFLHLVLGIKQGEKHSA
Source text: as §1

B cell = B cell proliferation EC50 (Table 3); format: cell-based
HBL-1 = HBL-1 (DLBCL ABC); combination with Compound 292
Method: (§2) The method is described as follows. Cells are thawed from a liquid nitrogen preserved state. Once cells have been expanded and divide at their expected doubling times, screening begins. Cells are seeded in growth media in either black 1536-well or 384-well tissue culture treated plates. […] These Tzero (T0) plates are read using ultra-sensitive luminescence on Envision plate readers (Perkin Elmer). […] All data points are collected via automated processes, quality controlled and analyzed using Zalicus software.
(§3) I ranges from 0% (when T=V) to 100% (when T=0). […] The measure of effect in the experiment can be the inhibition of cellular response relative to the untreated level (vehicle alone). For untreated vehicle and treated levels V and T, a fractional inhibition I=1−T/V is calculated. The inhibition ranges from 0% at the untreated level to 100% when T=0. Inhibition levels are negative for agents that actually increase levels. Other effect measures, such as an activity ratio r=T/V may be more appropriate for some assays. When activity ratios (e.g, fold increase over stimulated control) are being used, the effect can be measured using an induction I=ln(T/V). With this definition, all effect expressions are the same as for inhibition.
(§4) Growth Inhibition (GI) is used as a measure of cell viability. […] A GI reading of 100% represents complete growth inhibition −T72 compound-treated and T0 vehicle signals are matched. […] A GI reading of 200% represents complete death of all cells in the culture well. Compounds reaching an activity plateau of GI 200% are considered cytotoxic. GI is calculated by applying the following test and equation: […]
(§5) Combination analysis data were collected in a 6×6 dose matrix. Synergy is calculated by comparing a combination's response to those of its single compound, against the drug-with-itself dose-additive reference model. Deviations from dose additivity may be assessed visually on an isobologram or numerically with a Combination Index (CI). […] Additive effect is CI=1.0. […] Antagonistic effect is CI>1.0.
(§6) To measure combination effects in excess of Loewe additivity, a scalar measure to characterize the strength of synergistic interaction termed the Synergy Score is devised. The Synergy Score is calculated as: […]
(§7) The fractional inhibition for each component agent and combination point in the matrix is calculated relative to the median of all vehicle-treated control wells. The Synergy Score equation integrates the experimentally-observed activity volume at each point in the matrix in excess of a model surface numerically derived from the activity of the component agents using the Loewe model for additivity. Additional terms in the Synergy Score equation (above) are used to normalize for various dilution factors used for individual agents and to allow for comparison of synergy scores across an entire experiment. The inclusion of positive inhibition gating or an Idata multiplier removes noise near the zero effect level, and biases results for synergistic interactions at that occur at high activity levels.

OPM-2 = OPM-2 (multiple myeloma); combination with Compound 292
Method: as §2, §3, §4, §5, §6, §7

Jeko-1 = Jeko-1 (mantle cell lymphoma); combination with Compound 292
Method: as §2, §3, §4, §5, §6, §7

KARPAS-299 = KARPAS-299 (T cell lymphoma); combination with Compound 292
Method: as §2, §3, §4, §5, §6, §7

OCI-Ly7 = OCI-Ly7 (DLBCL GCB); combination with Compound 292
Method: as §2, §3, §4, §5, §6, §7

NCI-H929 = NCI-H929 (multiple myeloma); combination with Compound 292
Method: as §2, §3, §4, §5, §6, §7

U-2932 = U-2932 (DLBCL ABC); combination with Compound 292
Method: as §2, §3, §4, §5, §6, §7

GRANTA-519 = GRANTA-519 (mantle cell lymphoma); combination with Compound 292
Method: as §2, §3, §4, §5, §6, §7

HH = HH (T cell lymphoma); combination with Compound 292
Method: as §2, §3, §4, §5, §6, §7

OCI-LY3 = settings: OCI-Ly3 (DLBCL ABC); combination with Compound 292
Method: as §2, §3, §4, §5, §6, §7

KARPAS-422 = KARPAS-422 (follicular lymphoma); combination with Compound 292
Method: as §2, §3, §4, §5, §6, §7

RPMI-8226 = assay: combination screen with BTK inhibitors, 72 hours ATPLite; format: cell-based; settings: RPMI-8226 (multiple myeloma); combination with Compound 292
Method: as §2, §3, §4, §5, §6
(§8) The fractional inhibition for each component agent and combination point in the matrix is calculated relative to the median of all vehicle-treated control wells. The Synergy Score equation integrates the experimentally-observed activity volume at each point in the matrix in excess of a model surface numerically derived from the activity of the component agents using the Loewe model for additivity. […]

RL = assay: as above; format: cell-based; settings: RL (follicular lymphoma); combination with Compound 292
Method: as §2, §3, §4, §5, §6, §8

Chain of PI3K δ (O00329 whole entry): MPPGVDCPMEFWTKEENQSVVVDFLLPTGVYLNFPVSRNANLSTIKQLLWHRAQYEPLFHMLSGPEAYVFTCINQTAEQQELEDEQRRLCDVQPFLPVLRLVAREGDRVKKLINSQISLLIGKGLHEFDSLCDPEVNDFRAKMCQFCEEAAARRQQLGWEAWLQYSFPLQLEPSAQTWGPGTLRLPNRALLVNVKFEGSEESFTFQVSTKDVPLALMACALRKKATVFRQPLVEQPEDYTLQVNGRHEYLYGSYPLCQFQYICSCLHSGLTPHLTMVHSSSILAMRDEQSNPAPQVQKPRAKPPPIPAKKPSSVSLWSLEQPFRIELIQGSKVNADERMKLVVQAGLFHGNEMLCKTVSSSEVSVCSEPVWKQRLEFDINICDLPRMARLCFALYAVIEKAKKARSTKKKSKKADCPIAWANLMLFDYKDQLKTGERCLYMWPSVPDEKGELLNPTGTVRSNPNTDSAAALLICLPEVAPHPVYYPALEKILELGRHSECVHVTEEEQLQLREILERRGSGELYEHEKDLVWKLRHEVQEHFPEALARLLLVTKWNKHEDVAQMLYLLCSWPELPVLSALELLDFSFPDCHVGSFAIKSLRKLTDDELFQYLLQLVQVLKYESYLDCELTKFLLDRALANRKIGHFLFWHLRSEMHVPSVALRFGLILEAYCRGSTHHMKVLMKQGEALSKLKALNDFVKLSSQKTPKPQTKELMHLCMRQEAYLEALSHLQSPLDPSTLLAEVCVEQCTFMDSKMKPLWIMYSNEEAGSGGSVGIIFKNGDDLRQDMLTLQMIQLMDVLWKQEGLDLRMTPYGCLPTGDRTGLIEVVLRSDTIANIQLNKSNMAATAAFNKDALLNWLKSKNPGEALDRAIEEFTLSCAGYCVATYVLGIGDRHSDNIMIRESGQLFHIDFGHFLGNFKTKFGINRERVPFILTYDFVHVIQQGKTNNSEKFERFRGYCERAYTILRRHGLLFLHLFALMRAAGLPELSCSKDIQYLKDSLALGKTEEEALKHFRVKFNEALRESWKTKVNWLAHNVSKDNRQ
Chain of PI3K δ (P27986 whole entry partner): as the sequence (P27986 whole entry partner) above

Cc1cccc2cc(C(C)n3nc(-c4cn[nH]c4)c4c(N)ncnc43)n(C3CCN(C)CC3)c(=O)c12 (stereo not shown) [Compound 226]
IC50 (PI3K δ): < 1 µM

Cc1ccccc1-n1c(Cn2nc(I)c3c(N)ncnc32)cc2cccc(C)c2c1=O [Compound 31]
IC50 (PI3K δ): < 1 µM

Cc1cccc2cc(C(C)Nc3ncnc4[nH]cnc34)n(C3CCN(C)CC3)c(=O)c12 (stereo not shown) [Compound 228]
IC50 (PI3K β): < 10 µM | IC50 (PI3K δ): < 1 µM

Cc1cccc2cc([C@H](C)Nc3ncnc4[nH]c(Cl)cc34)n(C3CC3)c(=O)c12 [Compound 280]
IC50 (PI3K β): > 10 µM | IC50 (PI3K δ): > 10 µM | IC50 (PI3K α): > 10 µM | IC50 (PI3K γ): > 10 µM

Cc1cccc2cc([C@H](C)Nc3ncnc4[nH]cnc34)n(-c3ccccc3)c(=O)c12 [Compound 238]
IC50 (PI3K β): > 10 µM | IC50 (PI3K α): > 10 µM | IC50 (PI3K γ): < 1 µM

N#Cc1nn(Cc2cc3ccccc3c(=O)n2-c2ccccc2F)c2ncnc(N)c12 [Compound 169]
EC50 (B cell): < 1 µM | IC50 (PI3K β): > 10 µM | IC50 (PI3K δ): < 0.1 µM | IC50 (PI3K α): > 10 µM | IC50 (PI3K γ): > 10 µM

C=CC(=O)Nc1cccc(Nc2nc(Nc3ccc(OCCOC)cc3)ncc2F)c1 [AVL-292, N-(3-((5-fluoro-2-((4-(2-methoxyethoxy)phenyl)amino)pyrimidin-4-yl)amino)phenyl)acrylamide]
CI50 (inhibition) (HBL-1): W (W=≧1) | CI50 (inhibition) (OPM-2): U (U=0.7 to <1) | CI50 (growth inhibition) (Jeko-1): U (U=0.7 to <1) | CI50 (inhibition) (Jeko-1): U (U=0.7 to <1) | CI50 (growth inhibition) (KARPAS-299): U (U=0.7 to <1) | CI50 (growth inhibition) (OCI-Ly7): W (W=≧1) | CI50 (growth inhibition) (NCI-H929): U (U=0.7 to <1) | CI50 (inhibition) (NCI-H929): U (U=0.7 to <1) | CI50 (inhibition) (U-2932): W (W=≧1) | CI50 (growth inhibition) (GRANTA-519): W (W=≧1) | CI50 (inhibition) (HH): U (U=0.7 to <1) | CI50 (growth inhibition) (OCI-LY3): U (U=0.7 to <1) | CI50 (growth inhibition) (KARPAS-422): U (U=0.7 to <1) | CI50 (growth inhibition) (RPMI-8226): U (U=0.7 to <1) | CI50 (inhibition) (RPMI-8226): W (W=≧1)

C=CC(=O)N1CCC[C@@H](n2nc(-c3ccc(Oc4ccccc4)cc3)c3c(N)ncnc32)C1 [ibrutinib]
CI50 (growth inhibition) (NCI-H929): U (U=0.7 to <1) | CI50 (growth inhibition) (RL): U (U=0.7 to <1) | CI50 (inhibition) (RL): W (W=≧1)

CC(=O)Nc1nc2cc(-c3nn(Cc4cc5cccc(C)c5c(=O)n4-c4ccccc4)c4ncnc(N)c34)ccc2o1 [Compound 269]
IC50 (PI3K β): < 10 µM | IC50 (PI3K δ): < 1 µM | IC50 (PI3K γ): < 1 µM
